# What was measured:
# HIV PR G48V = molecular target: T1, HIV PR G48V (Human immunodeficiency virus type 1 group M subtype B, UniProt P03366, G548V); details: licensed drugs, literature; cited from earlier work
# T1 construct: drug-resistant mutant HIV PRs G48V and V82F
# HIV PR V82F = molecular target: T2, HIV PR V82F (Human immunodeficiency virus type 1 group M subtype B, UniProt P03366, V582F); details: licensed drugs, literature; cited from earlier work
# T2 construct: drug-resistant mutant HIV PRs G48V and V82F
# FIV PR [1] = molecular target: T3, FIV PR (Feline immunodeficiency virus, UniProt P16088, C122K/G43I/N93T); assay: Inhibition of FIV PR (Ki, IC50); format: biochemical
# T3 construct: made in house; host or cells: E. coli BL21(DE3)
# Protocol: The solution was mixed and incubated for 10 minutes at 37° C. and the reaction quenched by addition of 8M guanidine HCl solution containing 0.2 M sodium acetate at pH 4.2 (100 μL). The cleavage products and substrate were separated by reverse phase HPLC. Absorbance was measured at 215 nm, peak areas were determined and percent conversion to product was calculated using relative peak areas. […] IC50 was determined as the inhibitor concentration at 50% inhibition. […] ([S]=substrate concentration in nmol). The data used was generated similarly to that for Ki with the following modifications. The substrate concentrations used were 560, 448, 336, 224, 111 and 56 μM, in the absence of inhibitor.
# (§1) Kinetic determinations for both HIV PR and FIV PRs were performed at 37° C. at pH 5.25 in duplicate using F-2000 fluorescence spectrophotometer (Hitachi).
# (§2) For FIV PRs, the kinetic data were determined under the similar reaction conditions as for HIV PR.
# [2] = system: mutant FIV PRs (FIV(V59I), FIV(Q99V)); assay: Inhibition of mutant FIV PRs; format: biochemical, feline immunodeficiency virus
# Protocol: The inhibitory effects of each inhibitor were evaluated against HIV and FIV PRs along with two mutant FIV PRs that contain amino acid substitutions corresponding to those in HIV PR at homologous sites.
# as §2
# Mutant FIV PRs were prepared that contained substitutions of HIV residues noted to be associated with drug resistance in HIV (16) at equivalent sites in the three dimensional structure.
# [3] = system: FIV-PPR in feline T-cells (104-C1); assay: Ex vivo inhibitor analysis against FIV, pelletable reverse transcriptase in culture supernatant; format: cell-based, feline immunodeficiency virus
# Protocol: For FIV, the assays were performed in FIV-infected feline T-cells which were cultured in the presence of compound 1200 at different concentrations over the course of 1 month. Each data in FIG. 14 represents the amount of pelletable FIV reverse transcriptase in the culture supernatant. […] After one month, the drug-treated cultures were split and replated with and without compound 1200.
# The lymphocytic cell line 104-C1 (provided by C. Grant) was used as the target for infection. Cells were cultured in RPMI-1640 media supplemented with 10% FBS, 200 μM L-Glutamine, 1×MEM-Vitamins, 100 μM Sodium Pyruvate, 1×Non-Essential Amino Acids, 5.5×10−5M b-ME, 50 μg/ml Gentamicin, 50 U/ml human recombinant Interleukin-2 (provided by Hoffmann-LaRoche) and 7.5 μg/ml Concanavalin-A. For inhibitor assessment, 5×10^6 cells were infected with FIV-PPR (4×105 RT units) in 1 mL culture for 2 hr at 37° C. […] The cells were then washed with Hanks-buffered saline solution (HBSS) and resuspended in 10 ml of complete medium. The compound 1200 (10 mg/mL in DMSO) was then added to final concentrations of 0.1, 0.5, 1, and 5 μg/ml in duplicate. The cells were then incubated at 37° C. The culture supernatants were monitored for the presence of pelletable reverse transcriptase activity at weekly intervals, as follows. Cell-free culture supernatants (4 ml) were centrifuged at 60K for 30 min and the pellets were resuspended in 100 μl of lysis buffer containing 40 mM TrisHCl (pH 8.1), 360 mM NaCl, 20 mM DTT and 0.2% NP40. Twenty five μl of lysate was added to 25 μl of a mixture containing polyrA-pdT (Pharmacia, Piscataway, N.J.), MgCl2, and 3H-labeled deoxythymidine 5′-triphosphate (DuPont NEN, Boston, Mass.), and incubated for 1 hr at 37° C. The mixture was spotted on DE81 paper, air-dried, fixed in 0.1 M sodium pyrophosphate, washed three times in 0.3 M ammonium formate, and an additional time in 95% ethanol. The paper was then dried and counted on a scintillation counter.
# Cells were split 1:5 after the second, third, and fourth time points and fresh inhibitor was added at the appropriate concentration at each of these intervals. The data were expressed as values +/−standard deviation of the mean.
# HIV PR = molecular target: T4, HIV PR (Human immunodeficiency virus type 1 group M subtype B, UniProt P03366, Q507K); assay: Inhibition of HIV PR (Ki, IC50), fluorogenic substrate; format: biochemical
# T4 construct: initiator Met plus the eight Pol residues preceding PR (N-terminal extension of the expressed precursor) (N); made in house; host or cells: E. coli BL21.DE3, pLysS
# Protocol: The solution was mixed and incubated over 5 minutes during which time the rate of substrate cleavage was monitored by continuously recording the change in fluorescence of the assay solution. An excitation filter of 325 nm, and an emission filter of 420 nm were used.
# Determination of Ki for HIV protease was performed similarly with the following modifications. The substrate concentrations used were 57, 43, 28 and 14 μM. All other concentrations were as above. The curve fit for the data was determined and the subsequent Ki derived using a computer program based on the equation of Morrison et. al. BioChim. Biophys. ACTA 1969,185, 269, for tight binding inhibitors.
# as §1
# For HIV PR, the KM and Vmax values for the fluorogenic peptide substrate 2-aminobenzoyl (Abz)-Thr-Ile-Nle-Phe-(p-NO2)-Gln-Arg-NH2 (SEQ ID NO: 3) Toth et al Int. J. Peptide Res. 36, 544-550 were determined by measuring the initial rate of hydrolysis at different substrate concentrations (5.0, 7.5, 10, 20, 35, 50, 100, and 200 μM) by monitoring the change in fluorescence at an excitation wavelength of 325 nm and an emission wavelength of 420 nm, and fitting the obtained data to the Michaelis-Menten equation using the Grafit program (version 3.0, Erithacus Software Ltd., UK). Assays were run in 0.1 M MES buffer, containing 5% (v/v) glycerol, and 5% (v/v) DMSO (200 μl final volume). The enzyme concentration (30 μg/ml) which gave ideal progress curve was used for assays, but the dimeric active HIV PR concentration was not accurately determined. […] The curve fit the data was determined, and the subsequent Ki was derived using the Grafit program.
# FIV PR [4] = molecular target: T3, FIV PR; details: relative to HIV PR; Slee et al.; cited from earlier work
compound,measurement,setting,value
CC(C)c1nc(CN(C)C(=O)N[C@H](C(=O)N[C@@H](Cc2ccccc2)C[C@H](O)[C@H](Cc2ccccc2)NC(=O)OCc2cncs2)C(C)C)cs1 [ABT-538],"higher IC50 / decreased potency, G48V mutant compared to wild-type HIV PR",HIV PR G48V,17 fold
same,"higher IC50 / less sensitive, V82F mutant compared to wild-type HIV PR",HIV PR V82F,90 fold
Cc1c(O)cccc1C(=O)N[C@@H](CSc1ccccc1)[C@H](O)CN1C[C@H]2CCCC[C@H]2C[C@H]1C(=O)NC(C)(C)C [AG-1343],"higher IC50 / less sensitive, V82F mutant compared to wild-type HIV PR",HIV PR V82F,15 fold
CC(C)[C@H](NC(=O)[C@H](Cc1ccccc1)NC(=O)OCc1ccccc1)C(=O)N[C@@H](Cc1ccccc1)[C@@H](O)[C@H](O)[C@H](Cc1ccccc1)NC(=O)[C@@H](NC(=O)[C@H](Cc1ccccc1)NC(=O)OCc1ccccc1)C(C)C [Compound 10b],Ki,FIV PR [1],7000 nM
same,lower potency than 1b against FIV PR,FIV PR [1]; versus 1b,170 fold
same,"lower potency compared to 1100, FIV PR",FIV PR [1]; versus 1100,45 fold
same,"Ki higher / potency lower than 1200, FIV PR",FIV PR [1]; versus 1200,170 fold
same,activity against mutant FIV PRs compared to wild type FIV PR (in words),[2],very similar activities
CC(C)[C@H](NC(=O)[C@H](CO)NC(=O)OCc1ccccc1)C(=O)N[C@@H](Cc1ccccc1)[C@@H](O)[C@H](O)[C@H](Cc1ccccc1)NC(=O)[C@@H](NC(=O)[C@H](CO)NC(=O)OCc1ccccc1)C(C)C [Compound 12],Ki,FIV PR [1],32 nM
same,inhibition of FIV PR (in words),FIV PR [1],effective inhibitors
same,prevention of FIV infection in tissue culture (in words),[3],not as effective as 1b
same,Ki,HIV PR,0.58 nM
same,inhibition of HIV PR (in words),HIV PR,effective inhibitors
same,higher potency against HIV PR compared to 1b,HIV PR; versus 1b,3 fold
CC(C)(C)NC(=O)[C@@H]1CN(Cc2cccnc2)CCN1C[C@@H](O)C[C@@H](Cc1ccccc1)C(=O)N[C@H]1c2ccccc2C[C@H]1O [MK-639],"higher IC50 / less sensitive, V82F mutant compared to wild-type HIV PR",HIV PR V82F,7 fold
"CC(C)(C)NC(=O)[C@@H]1C[C@@H]2CCCC[C@@H]2CN1C[C@@H](O)[C@H](Cc1ccccc1)NC(=O)[C@H](CC(N)=O)NC(=O)c1ccc2ccccc2n1 [RO31-8959, reference compound]","higher IC50 / decreased potency, G48V mutant compared to wild-type HIV PR",HIV PR G48V,27 fold
same,Ki,FIV PR [1],76000 nM
same,inhibition of FIV PR (in words),FIV PR [1],total loss of potency
same,Ki,HIV PR,1.6 nM
same,"less efficient inhibitor of FIV PR, factor",FIV PR [4],≥ 100

# From patent publication US6803466B1, “HIV/FIV protease inhibitors having a small P3 residue” (The Scripps Research Institute, priority 1997, dated 2004)
